Assay results reported in patent US20250042886A1, “BIS(HETERO)ARYL THIOETHER OXADIAZINES AS FUNGICIDAL COMPOUNDS” (Bayer Aktiengesellschaft, priority 2021, published 2025).

Legend:
[1] = test system: Alternaria brassicae; test: In vivo preventive test on Alternaria brassicae (leaf spot on radish or cabbage); settings: 500 ppm of active ingredient, sprayed on young radish or cabbage plants 24 h before inoculation, evaluated 3 to 4 days after inoculation, read-out: efficacy
Procedure: B-1. […] The active ingredients were made soluble and homogenized in a mixture of Dimethyl sulfoxide/Acetone//Tween® 80 and then diluted in water to the desired concentration. The young plants of radish or cabbage were treated by spraying the active ingredient prepared as described above. Control plants were treated only with an aqueous solution of Acetone/Dimethyl sulfoxide/Tween® 80. After 24 hours, the plants were contaminated by spraying the leaves with an aqueous suspension of Alternaria brassicae spores.

[2] = Measurement of Log P values by HPLC on reversed phase columns (EEC directive 79/831 Annex V.A8); assay type: physicochemical; settings: Table 1, compounds of formula (I); method [a]: LC-UV, acidic range, 0.1% formic acid in water and acetonitrile
[3] = test system: Colletotrichum lindemuthianum; test: Colletotrichum lindemuthianum in vitro cell test; assay type: cell-based; settings: 144 h, liquid culture, 6 days incubation, read-out: efficacy (inhibition of fungal growth); for inhibition at 20 ppm: 20 ppm of active ingredient; for inhibition at 50 µM: 50 μMol/l of active ingredient
Procedure: (§1) B-7. Colletotrichum lindemuthianum In Vitro Cell Test • Solvent: DMSO • Culture medium: 14.6 g anhydrous D-glucose (VWR), 7.1 g Mycological Peptone (Oxoid), 1.4 g granulated Yeast Extract (Merck), QSP 1 liter • Inoculum: spores suspension Fungicides were solubilized in DMSO and the solution used to prepare the required range of concentrations. […] A spore suspension of C. lindemuthianum was prepared and diluted to the desired spore density. Fungicides were evaluated for their ability to inhibit spores germination and mycelium growth in liquid culture assay. The compounds were added in the desired concentration to the culture medium with spores. After 6 days incubation, fungi-toxicity of compounds was determined by spectrometric measurement of mycelium growth. Inhibition of fungal growth was determined by comparing the absorbance values in wells containing the fungicides with the absorbance in control wells without fungicides.

[4] = test system: Botrytis cinerea; test: In vivo preventive test on Botrytis cinerea (grey mould); settings: 500 ppm of active ingredient, sprayed on young gherkin or cabbage plants 24 h before inoculation, evaluated 4 to 5 days after inoculation, read-out: efficacy
Procedure: The active ingredients were made soluble and homogenized in a mixture of Dimethyl sulfoxide/Acetone//Tween® 80 and then diluted in water to the desired concentration. The young plants of gherkin or cabbage were treated by spraying the active ingredient prepared as described above. Control plants were treated only with an aqueous solution of Acetone/Dimethyl sulfoxide/Tween® 80. After 24 hours, the plants were contaminated by spraying the leaves with an aqueous suspension of Botrytis cinerea spores.

[5] = test system: Botrytis cinerea; test: Botrytis cinerea in vitro cell test; assay type: cell-based; settings: 144 h, liquid culture, 6 days incubation, read-out: efficacy (inhibition of fungal growth); for inhibition at 20 ppm: 20 ppm of active ingredient; for inhibition at 50 µM: 50 μMol/l of active ingredient
Procedure: B-9. Botrytis cinerea In Vitro Cell Test • Solvent: DMSO • Culture medium: 1 g KH2PO4 (VWR), 1 g K2HPO4 (VWR), 0.5 g Urea (VWR), 3 g KNO3 (Prolabo), 10 g saccharose (VWR), 0.5 g MgSO4, 7H2O (Sigma), 0.07 g CaCl2, 2H2O (Prolabo), 0.2 mg MnSO4, H2O (Sigma), 0.6 mg CuSO4, 5H2O (Sigma), 7.9 mg ZnSO4, 7H2O (Sigma), 0.1 mg H3BO3 (Merck), 0.14 mg NaMoO4, 2H2O (Sigma), 2 mg thiamine (Sigma), 0.1 mg biotine (VWR), 4 mg FeSO4, 7H2O (Sigma), QSP 1 liter • Inoculum: spore suspension Fungicides were solubilized in DMSO and the solution used to prepare the required range of concentrations. […] A spore suspension of B. cinerea was prepared and diluted to the desired spore density. Fungicides were evaluated for their ability to inhibit spore germination and mycelium growth in liquid culture assay. The compounds were added in the desired concentration to the culture medium with spores. After 6 days incubation, fungi-toxicity of compounds was determined by spectrometric measurement of mycelium growth. Inhibition of fungal growth was determined by comparing the absorbance values in wells containing the fungicides with the absorbance in control wells without fungicides.

[6] = test system: Alternaria alternata; test: Alternaria alternata in vitro cell test; assay type: cell-based; settings: 120 h, liquid culture, 5 days incubation, read-out: efficacy (inhibition of fungal growth); for inhibition at 50 µM: 50 μMol/l of active ingredient
Procedure: as §1, with “B-5. Alternaria alternata In” for “B-7. Colletotrichum lindemuthianum In”, “of A. alternata” for “of C. lindemuthianum”, “inhibit spore” for “inhibit spores”, “After 5” for “After 6”

[7] = test system: Pyrenophora teres; test: Pyrenophora teres in vitro cell test; assay type: cell-based; settings: 144 h, liquid culture, 6 days incubation, read-out: efficacy (inhibition of fungal growth); for inhibition at 50 µM: 50 μMol/l of active ingredient
Procedure: as §1, with “B-8. Pyrenophora teres In” for “B-7. Colletotrichum lindemuthianum In”, “Inoculum: spore” for “Inoculum: spores”, “of P. teres” for “of C. lindemuthianum”, “inhibit spore” for “inhibit spores”

[8] = test system: Pyricularia oryzae; test: microbe, parasite or virus in culture; assay type: cell-based; settings: 120 h; for inhibition at 50 µM: read-out: efficacy (inhibition of fungal growth), 50 μMol/l of active ingredient, liquid culture, 5 days incubation
[9] = test system: Fusarium culmorum; test: Fusarium culmorum in vitro cell test; assay type: cell-based; settings: 120 h, 50 μMol/l of active ingredient, liquid culture, 5 days incubation, read-out: efficacy (inhibition of fungal growth)
Procedure: B-10. Fusarium culmorum In Vitro Cell Test • Solvent: DMSO • Culture medium: 1 g KH2PO4 (VWR), 1 g K2HPO4 (VWR), 0.5 g Urea (VWR), 3 g KNO3 (Prolabo), 10 g saccharose (VWR), 0.5 g MgSO4, 7H2O (Sigma), 0.07 g CaCl2, 2H2O (Prolabo), 0.2 mg MnSO4, H2O (Sigma), 0.6 mg CuSO4, 5H2O (Sigma), 7.9 mg ZnSO4, 7H2O (Sigma), 0.1 mg H3BO3 (Merck), 0.14 mg NaMoO4, 2H2O (Sigma), 2 mg thiamine (Sigma), 0.1 mg biotine (VWR), 4 mg FeSO4, 7H2O (Sigma), QSP 1 liter • Inoculum: spores suspension
Fungicides were solubilized in DMSO and the solution used to prepare the required range of concentrations. The final concentration of DMSO used in the assay was ≤1%.
A spore suspension of F. culmorum was prepared and diluted to the desired spore density.
Fungicides were evaluated for their ability to inhibit spore germination and mycelium growth in liquid culture assay. The compounds were added in the desired concentration to the culture medium with spores. After 5 days incubation, fungi-toxicity of compounds was determined by spectrometric measurement of mycelium growth. Inhibition of fungal growth was determined by comparing the absorbance values in wells containing the fungicides with the absorbance in control wells without fungicides.

Row | SMILES | pest or weed control at 500 ppm [1] [%] | chromatographic logP [2] | inhibition at 20 ppm [3] [%] | pest or weed control at 500 ppm [4] [%] | inhibition at 20 ppm [5] [%] | inhibition at 20 ppm ([6]; 20 ppm of active ingredient) [%] | inhibition at 20 ppm ([7]; 20 ppm of active ingredient) [%] | inhibition at 20 ppm ([8]; read-out: efficacy (inhibition of fungal growth), 20 ppm of active ingredient, liquid culture, 5 days incubation) [%] | inhibition at 50 µM [7] [%] | inhibition at 50 µM [6] [%] | inhibition at 50 µM [9] [%] | inhibition at 50 µM [5] [%] | inhibition at 50 µM [3] [%] | inhibition at 50 µM [8] [%]
1 | COc1cccc(Sc2nnc3ccccc3c2C2=NOC[C@@H](Cc3ccc(C)cc3C)N2)c1 (racemic) [Compound I-006] | 90 to 100 | 3.84 | 90 to 100 | 90 to 100 | 90 to 100 | – | – | – | – | – | – | – | – | –
2 | Cc1cccc(Sc2nnc(Cl)cc2C2=NOC[C@@H](Cc3ccc(Cl)cc3Cl)N2)c1 (racemic) [Compound I-014] | – | 4.59 | – | – | 90 to 100 | 70 to 79 | – | – | – | – | – | – | – | –
3 | Clc1cccc(Sc2nnc(Cl)cc2C2=NOC[C@@H](Cc3ccc(Cl)cc3Cl)N2)c1 (racemic) [Compound I-015] | 80 to 89 | 4.73 | 90 to 100 | 90 to 100 | 90 to 100 | – | 90 to 100 | 90 to 100 | – | – | – | – | – | –
4 | COc1ccc(Sc2nnc(C)c(C)c2C2=NOC[C@@H](c3cc(C)sc3C)N2)cc1 (racemic) [Compound I-049] | – | 3.11 | – | – | – | – | – | – | 70 to 79 | 70 to 79 | – | – | – | –
5 | Cc1ccc([C@H]2CON=C(c3c(Sc4ccc(F)cc4)nnc4ccccc34)N2)s1 (racemic) [Compound I-060] | 70 to 79 | 3.29 | – | 90 to 100 | – | – | – | – | 70 to 79 | – | 70 to 79 | 90 to 100 | – | –
6 | Cc1ccc([C@H]2CON=C(c3c(Sc4ccc(F)c(Cl)c4)nnc4ccccc34)N2)s1 (racemic) [Compound I-068] | 80 to 89 | 3.74 | – | 90 to 100 | – | – | – | – | 70 to 79 | – | – | 90 to 100 | 90 to 100 | –
7 | Cc1cc([C@@H]2CON=C(c3c(Sc4cccc(Cl)c4F)nnc(C)c3C)N2)c(C)s1 (racemic) [Compound I-071] | – | 3.58 | – | – | – | – | – | – | 90 to 100 | 90 to 100 | 90 to 100 | 90 to 100 | 90 to 100 | 90 to 100
8 | Cc1cc([C@H]2CON=C(c3c(Sc4ccc(F)c(Cl)c4)nnc(C)c3C)N2)c(C)s1 (racemic) [Compound I-088] | 70 to 79 | 3.62 | – | 90 to 100 | – | – | – | – | – | – | – | 90 to 100 | 90 to 100 | –
9 | Cc1cccc(Sc2nnc(C)c(C)c2C2=NOC[C@H](c3cc(C)sc3C)N2)n1 (racemic) [Compound I-089] | 70 to 79 | 2.56 | – | 80 to 89 | – | – | – | – | – | – | – | 70 to 79 | – | –
10 | Cc1ccc(C2CON=C(c3c(Sc4cccc(Cl)c4F)nnc(C)c3C)N2)s1 (racemic) [Compound I-103] | – | 3.21 | – | – | – | – | – | – | 90 to 100 | 90 to 100 | 80 to 89 | 90 to 100 | 90 to 100 | 90 to 100
11 | Cc1ccc(C2CON=C(c3c(Sc4cccc(Cl)c4)nnc(C)c3C)N2)s1 (racemic) [Compound I-104] | – | 3.14 | – | – | – | – | – | – | 90 to 100 | 90 to 100 | 90 to 100 | 90 to 100 | 90 to 100 | 90 to 100
12 | Cc1cc([C@H]2CON=C(c3c(Sc4ccc(C)c(C)c4)nnc(C)c3C)N2)c(C)s1 (racemic) [Compound I-111] | – | 3.64 | – | 80 to 89 | – | – | – | – | 90 to 100 | 70 to 79 | 90 to 100 | 90 to 100 | 90 to 100 | –
13 | Cc1cc([C@@H]2CON=C(c3c(Sc4cccc(Cl)c4Cl)nnc(C)c3C)N2)c(C)s1 (racemic) [Compound I-118] | – | 3.7 | – | – | – | – | – | – | 90 to 100 | 90 to 100 | – | 90 to 100 | 80 to 89 | 80 to 89
14 | Cc1cc([C@@H]2CON=C(c3c(Sc4ccccc4C)nnc(C)c3C)N2)c(C)s1 (racemic) [Compound I-121] | 80 to 89 | 3.29 | – | 90 to 100 | – | – | – | – | – | – | – | 90 to 100 | – | –
15 | Cc1cc([C@@H]2CON=C(c3c(Sc4ccc5ccccc5c4)nnc(C)c3C)N2)c(C)s1 (racemic) [Compound I-122] | – | 3.68 | – | – | – | – | – | – | 80 to 89 | 70 to 79 | 90 to 100 | – | 70 to 79 | –
16 | Cc1ccc([C@H]2CON=C(c3c(Sc4ccc(F)c(F)c4)nnc4ccccc34)N2)s1 (racemic) [Compound I-124] | 80 to 89 | 3.44 | – | 90 to 100 | – | – | – | – | – | – | 80 to 89 | 90 to 100 | 70 to 79 | 70 to 79
17 | Cc1ccc([C@@H]2CON=C(c3c(Sc4cccc(Cl)c4Cl)nnc(C)c3C)N2)s1 (racemic) [Compound I-136] | – | 3.31 | – | – | – | – | – | – | 90 to 100 | 80 to 89 | – | 90 to 100 | – | 70 to 79
